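Test compounds were applied to cells in 96-well plates for 48 hours at 5 doses. GI50: concentration for 50% inhibition of growth.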 Calls of active or inactive are those of the source. Cut-off read from the data, not from the text of the source: active = GI50 up to about 1.1 µM and inactive = higher.
Experiments:
Experiment in all cases: DTP human tumour cell line panel, 48 h
COLO 205 = tested on: COLO 205
SR = tested on: SR
MDA-MB-231 = tested on: MDA-MB-231
PC-3 = tested on: PC-3
NCI-H522 = tested on: NCI-H522
SK-OV-3 = tested on: SK-OV-3
SNB-75 = tested on: SNB-75
HT-29 = tested on: HT-29
TK-10 = tested on: TK-10
MDA-N = tested on: MDA-N
SF-268 = tested on: SF-268
786-0 = tested on: 786-0
HCT-116 = tested on: HCT-116
U-251 = tested on: U-251
EKVX = tested on: EKVX
SN12C = tested on: SN12C
HOP-62 = tested on: HOP-62
K562 = tested on: K562
CAKI-1 = tested on: CAKI-1

Measured: GI50

Cc1nc2ccccc2c(=O)n1NC(=O)c1ccc([N+](=O)[O-])cc1
inactive: COLO 205 > 100 µM | SR > 100 µM | MDA-MB-231 > 100 µM | PC-3 > 100 µM | NCI-H522 > 100 µM | SK-OV-3 > 100 µM | SNB-75 > 100 µM | HT-29 > 100 µM | TK-10 > 100 µM | MDA-N > 100 µM | SF-268 > 100 µM | 786-0 > 100 µM | HCT-116 > 100 µM | U-251 > 100 µM | EKVX > 100 µM | SN12C > 100 µM | HOP-62 > 100 µM | K562 > 100 µM

O=C(O)CCC(=O)c1ccc2sc3ccccc3c2c1
inactive: COLO 205 > 100 µM | SR > 100 µM | MDA-MB-231 > 100 µM | PC-3 > 100 µM | NCI-H522 > 100 µM | SK-OV-3 > 100 µM | SNB-75 > 100 µM | HT-29 > 100 µM | TK-10 91.6 µM | MDA-N > 100 µM | SF-268 > 100 µM | 786-0 > 100 µM | CAKI-1 > 100 µM | HCT-116 > 100 µM | U-251 > 100 µM | EKVX > 100 µM | SN12C > 100 µM | HOP-62 > 100 µM | K562 > 100 µM

CN(C)S(=O)(=O)c1nc(Cl)c2nc[nH]c2n1
inactive: COLO 205 > 100 µM | SR > 100 µM | MDA-MB-231 > 100 µM | PC-3 > 100 µM | NCI-H522 > 100 µM | SK-OV-3 > 100 µM | SNB-75 36.9 µM | HT-29 > 100 µM | TK-10 > 100 µM | MDA-N > 100 µM | SF-268 > 100 µM | 786-0 > 100 µM | CAKI-1 > 100 µM | HCT-116 > 100 µM | U-251 > 100 µM | EKVX > 100 µM | SN12C > 100 µM | HOP-62 > 100 µM | K562 > 100 µM

CCOP(=O)(OCC)Oc1c(OC)c2[nH]c(C(=O)OC)cc2c2c(C(=O)O)c[nH]c12
inactive: COLO 205 > 100 µM | SR > 100 µM | MDA-MB-231 > 100 µM | PC-3 > 100 µM | NCI-H522 > 100 µM | SK-OV-3 > 100 µM | SNB-75 > 100 µM | HT-29 > 100 µM | TK-10 > 100 µM | MDA-N > 100 µM | SF-268 > 100 µM | 786-0 > 100 µM | CAKI-1 > 100 µM | HCT-116 > 100 µM | U-251 > 100 µM | EKVX > 100 µM | SN12C > 100 µM | HOP-62 > 100 µM | K562 > 100 µM

[N-]=[N+]=Nc1ccccc1C(=O)N1C(=O)c2ccccc2C(=O)N(C(=O)c2ccccc2N=[N+]=[N-])c2ccccc21
inactive: COLO 205 34.1 µM | SR 38.8 µM | MDA-MB-231 52.8 µM | PC-3 21.4 µM | NCI-H522 30.5 µM | SK-OV-3 31.2 µM | SNB-75 21.4 µM | HT-29 98.6 µM | TK-10 67.5 µM | MDA-N 59.3 µM | SF-268 71 µM | 786-0 28.4 µM | CAKI-1 59 µM | HCT-116 35 µM | U-251 40 µM | EKVX > 100 µM | SN12C 82.8 µM | HOP-62 21.6 µM | K562 30.3 µM

c1ccc(-c2cc(-c3cc(-c4ccccc4)no3)on2)cc1
inactive: COLO 205 45.6 µM | SR 11.5 µM | MDA-MB-231 24.1 µM | PC-3 > 100 µM | NCI-H522 > 100 µM | SK-OV-3 28.6 µM | HT-29 > 100 µM | TK-10 > 100 µM | MDA-N > 100 µM | SF-268 66.1 µM | 786-0 72.1 µM | CAKI-1 > 100 µM | HCT-116 55.8 µM | U-251 29.2 µM | EKVX 72.6 µM | SN12C 42.5 µM | HOP-62 72.1 µM | K562 17.9 µM

NC(=S)SC1=NC(=O)C2(NN1)c1ccccc1-c1ccccc12
inactive: COLO 205 > 10 µM | SR > 10 µM | MDA-MB-231 > 10 µM | PC-3 > 10 µM | NCI-H522 4.27 µM | SK-OV-3 > 10 µM | SNB-75 > 10 µM | HT-29 > 10 µM | TK-10 > 10 µM | MDA-N > 10 µM | SF-268 > 10 µM | 786-0 > 10 µM | CAKI-1 > 10 µM | HCT-116 > 10 µM | EKVX 6.58 µM | SN12C > 10 µM | HOP-62 > 10 µM

O=C1NNC2(C(=O)N1)c1ccccc1-c1ccccc12
inactive: COLO 205 > 10 µM | SR > 10 µM | MDA-MB-231 > 10 µM | PC-3 > 10 µM | NCI-H522 > 10 µM | SK-OV-3 > 10 µM | SNB-75 > 10 µM | HT-29 > 10 µM | TK-10 > 10 µM | MDA-N > 10 µM | SF-268 > 10 µM | 786-0 > 10 µM | CAKI-1 > 10 µM | HCT-116 > 10 µM | EKVX 6.71 µM | SN12C > 10 µM | HOP-62 > 10 µM | K562 > 10 µM

CCN1C=C/C(=C\C=C\c2cc[n+](CC)c3ccccc23)c2ccccc21
inactive: COLO 205 3.72 µM | SR 3.33 µM | MDA-MB-231 3.31 µM | PC-3 4.49 µM | NCI-H522 7.43 µM | SK-OV-3 4.66 µM | SNB-75 2.64 µM | HT-29 3.51 µM | TK-10 10.6 µM | MDA-N 7.01 µM | SF-268 4.99 µM | 786-0 4.9 µM | HCT-116 2.75 µM | U-251 3.8 µM | EKVX 18.9 µM | SN12C 3.63 µM | HOP-62 3.24 µM

Cc1ccc(-c2nc3cc(Cl)ccc3[nH]2)cc1
inactive: COLO 205 71.6 µM | SR 3.38 µM | MDA-MB-231 > 100 µM | PC-3 79.1 µM | NCI-H522 91.2 µM | SK-OV-3 > 100 µM | SNB-75 > 100 µM | HT-29 49 µM | TK-10 > 100 µM | MDA-N 42.5 µM | SF-268 > 100 µM | 786-0 > 100 µM | CAKI-1 > 100 µM | HCT-116 > 100 µM | U-251 > 100 µM | EKVX > 100 µM | SN12C > 100 µM | HOP-62 > 100 µM | K562 45.5 µM

CC(=O)Oc1c(C)c2c(O)c3c1C1=C(OCOC1=C(C)C3=O)/C(C)=C/C(C)(O)C(O)C(C)C(O)C1C(=O)OC(C(C)C1O)C(C)(O)/C=C\C=C(C)C(=O)N2 (stereo not given)
inactive: COLO 205 86.5 µM | SR 43.3 µM | MDA-MB-231 21.5 µM | PC-3 27.5 µM | NCI-H522 49.1 µM | SK-OV-3 35.5 µM | SNB-75 24 µM | HT-29 > 100 µM | MDA-N > 100 µM | SF-268 31.8 µM | 786-0 53.7 µM | CAKI-1 17.1 µM | HCT-116 57.1 µM | U-251 39.7 µM | EKVX 10.7 µM | SN12C 35 µM | HOP-62 19.2 µM | K562 21.7 µM

CCOC(CN=C=S)OCC
inactive: COLO 205 > 10 µM | SR 2.52 µM | MDA-MB-231 > 10 µM | PC-3 > 10 µM | NCI-H522 > 10 µM | SK-OV-3 > 10 µM | SNB-75 > 10 µM | HT-29 > 10 µM | TK-10 > 10 µM | MDA-N > 10 µM | SF-268 > 10 µM | 786-0 > 10 µM | CAKI-1 > 10 µM | HCT-116 7.4 µM | U-251 > 10 µM | EKVX > 10 µM | SN12C > 10 µM | HOP-62 > 10 µM | K562 7.01 µM

Cc1ccc2[nH]/c(=N/S(=O)(=O)c3cc(C)c(Cl)cc3S)[nH]c2c1
inactive: COLO 205 58.5 µM | SR 31.6 µM | MDA-MB-231 > 100 µM | PC-3 50 µM | NCI-H522 > 100 µM | SK-OV-3 > 100 µM | SNB-75 25.1 µM | HT-29 > 100 µM | TK-10 > 100 µM | MDA-N 87.5 µM | SF-268 39.8 µM | 786-0 45.9 µM | CAKI-1 48.1 µM | HCT-116 46.6 µM | U-251 24 µM | EKVX 31.9 µM | SN12C > 100 µM | HOP-62 34.8 µM | K562 50.2 µM

O=C(c1ccccc1)N1C(=S)N(c2ccc([N+](=O)[O-])cc2)C(=N/c2ccccc2)/C1=N\c1ccccc1
inactive: COLO 205 > 100 µM | SR 20.6 µM | MDA-MB-231 39.8 µM | PC-3 40.6 µM | NCI-H522 9.06 µM | SK-OV-3 > 100 µM | SNB-75 24.4 µM | HT-29 > 100 µM | TK-10 > 100 µM | MDA-N 52.7 µM | SF-268 > 100 µM | 786-0 > 100 µM | CAKI-1 > 100 µM | U-251 44.8 µM | EKVX > 100 µM | SN12C > 100 µM | HOP-62 > 100 µM | K562 30.1 µM

O=C(O)CCC(N/N=N/c1ccc(-c2nc3ccccc3[nH]2)cc1)C(=O)O (stereo not given)
inactive: COLO 205 > 100 µM | SR 29.7 µM | MDA-MB-231 > 100 µM | PC-3 81.8 µM | NCI-H522 > 100 µM | SK-OV-3 59.7 µM | SNB-75 59.2 µM | HT-29 58.1 µM | TK-10 > 100 µM | MDA-N 56 µM | 786-0 52.1 µM | CAKI-1 61.4 µM | HCT-116 70.8 µM | U-251 43.7 µM | EKVX > 100 µM | SN12C 60.4 µM | HOP-62 48.8 µM | K562 30.1 µM

Reference: ChEMBL document CHEMBL1201862, “PubChem BioAssay data set” (2004)
